From patent US8852656B2, “Sleep improvement composition” (Taiyokagaku Co., Ltd., priority 2004, dated 2014)

Experiments:
mice = type: in vivo; conditions: oral administration of 5 g/kg
Description: In particular, theanine is known as a “umami” component of tea, is used as a food additive for providing flavor, and the Food Sanitation Law places no restrictions in addition amount.

[1] = reported, Patent Document 1; cited from earlier work
rat = conditions: administered to a rat; cited from earlier work

**Q.** Which “Death in acute toxicity test” value (mice) does the source give for `CCNC(=O)CC[C@H](N)C(=O)O` [theanine] here?
**A.** no cases of death

**Q.** With `C[C@@H]1CC[C@H]2C(C)(C)[C@H]3C[C@@]12CC[C@@]3(C)O` [cedrol] as the compound, how does the Effect on sleep [1] read?
**A.** elongate the total sleeping time, shorten the sleep latency time, and increase the sleep efficiency

**Q.** With `CC/C=C\C/C=C\C/C=C\C/C=C\C/C=C\C/C=C\CCC(=O)O[C@H](COC(=O)CCCCCCC/C=C\CCCCCCCC)COP(=O)([O-])OCC[N+](C)(C)C` [1-oleoyl-2-DHA-sn-3-phosphocholine] as the compound, how does the Effect on sleep (rat) read?
**A.** the total sleeping time within 24 hours, the REM sleeping time, and the REM sleeping time with respect to the total sleeping time are increased
